IC50, EC50 and CC50 data for 14 compounds are collected here from patent US11021444B2, “Antiviral compounds” (priority 2013, dated 2021).

Structures are written as SMILES. Like-named read-outs stand apart in the source and are kept apart here.

The target of data set [1] is recombinant RSV complex (Human respiratory syncytial virus A, UniProt P28887). Briefly: RSV Polymerase Inhibition Assay. The format is biochemical. The procedure, abridged:
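10 nM recombinant RSV polymerase complex in Tris-HCl pH 7.5, 6 mM MgCl2 with RNA oligonucleotide template and radionucleotides, incubated 2 h at 30 °C with increasing inhibitor concentrations. Reaction stopped with EDTA; radiolabeled RNA product counted by scintillation.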

Data set [2] has as its system RSV replicon. Put plainly: microbe, parasite or virus in culture. The class given is cell-based. Conditions: human respiratory syncytial virus, read-out: EC50, the concentration of the drug required for reducing RSV replicon RNA by 50%.
The test system of data set [3] is Respiratory Syncytial Virus (RSV) long strain. Briefly: microbe, parasite or virus in culture. The class given is cell-based. To be noted: human respiratory syncytial virus, Tables A and B list compounds by EC50 band. In a few lines:
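HEp-2 cells infected with 100 TCID50 virus per well, compounds in duplicate, 9-point 1/3 dilutions from 100 μM or 1 μM, 1% DMSO. After 5 days at 37 °C, cell viability (CPE protection) read by CCK-8 absorbance at 450 nm, 630 nm background.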

Data set [4] in a line: Cytotoxicity Determination (CCK-8, without addition of virus). The format is cell-based. To be noted: human, 50% cytotoxicity concentration (CC50). In a few lines: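 HEp-2 cells were seeded at 1,500 cells/well one day before compound addition. Compounds were tested without virus in duplicate over 7 points from 100 μM in 1/2 steps, with 1% final DMSO, 5 days at 37 °C, 5% CO2. Viability was read by CCK-8 after 3-4 hours.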

The mark [5] stands for this setting: HEp-2, 120 h, read-out: 50% effective concentration (EC50), HEp-2 cells infected with RSV long strain, 5 days, CCK-8 readout.
Where [6] appears, read: 120 h, read-out: 50% effective concentration (EC50), HEp-2 cells infected with RSV long strain, 5 days, CCK-8 readout.

recombinant RSV complex, sequence (P28887 whole entry): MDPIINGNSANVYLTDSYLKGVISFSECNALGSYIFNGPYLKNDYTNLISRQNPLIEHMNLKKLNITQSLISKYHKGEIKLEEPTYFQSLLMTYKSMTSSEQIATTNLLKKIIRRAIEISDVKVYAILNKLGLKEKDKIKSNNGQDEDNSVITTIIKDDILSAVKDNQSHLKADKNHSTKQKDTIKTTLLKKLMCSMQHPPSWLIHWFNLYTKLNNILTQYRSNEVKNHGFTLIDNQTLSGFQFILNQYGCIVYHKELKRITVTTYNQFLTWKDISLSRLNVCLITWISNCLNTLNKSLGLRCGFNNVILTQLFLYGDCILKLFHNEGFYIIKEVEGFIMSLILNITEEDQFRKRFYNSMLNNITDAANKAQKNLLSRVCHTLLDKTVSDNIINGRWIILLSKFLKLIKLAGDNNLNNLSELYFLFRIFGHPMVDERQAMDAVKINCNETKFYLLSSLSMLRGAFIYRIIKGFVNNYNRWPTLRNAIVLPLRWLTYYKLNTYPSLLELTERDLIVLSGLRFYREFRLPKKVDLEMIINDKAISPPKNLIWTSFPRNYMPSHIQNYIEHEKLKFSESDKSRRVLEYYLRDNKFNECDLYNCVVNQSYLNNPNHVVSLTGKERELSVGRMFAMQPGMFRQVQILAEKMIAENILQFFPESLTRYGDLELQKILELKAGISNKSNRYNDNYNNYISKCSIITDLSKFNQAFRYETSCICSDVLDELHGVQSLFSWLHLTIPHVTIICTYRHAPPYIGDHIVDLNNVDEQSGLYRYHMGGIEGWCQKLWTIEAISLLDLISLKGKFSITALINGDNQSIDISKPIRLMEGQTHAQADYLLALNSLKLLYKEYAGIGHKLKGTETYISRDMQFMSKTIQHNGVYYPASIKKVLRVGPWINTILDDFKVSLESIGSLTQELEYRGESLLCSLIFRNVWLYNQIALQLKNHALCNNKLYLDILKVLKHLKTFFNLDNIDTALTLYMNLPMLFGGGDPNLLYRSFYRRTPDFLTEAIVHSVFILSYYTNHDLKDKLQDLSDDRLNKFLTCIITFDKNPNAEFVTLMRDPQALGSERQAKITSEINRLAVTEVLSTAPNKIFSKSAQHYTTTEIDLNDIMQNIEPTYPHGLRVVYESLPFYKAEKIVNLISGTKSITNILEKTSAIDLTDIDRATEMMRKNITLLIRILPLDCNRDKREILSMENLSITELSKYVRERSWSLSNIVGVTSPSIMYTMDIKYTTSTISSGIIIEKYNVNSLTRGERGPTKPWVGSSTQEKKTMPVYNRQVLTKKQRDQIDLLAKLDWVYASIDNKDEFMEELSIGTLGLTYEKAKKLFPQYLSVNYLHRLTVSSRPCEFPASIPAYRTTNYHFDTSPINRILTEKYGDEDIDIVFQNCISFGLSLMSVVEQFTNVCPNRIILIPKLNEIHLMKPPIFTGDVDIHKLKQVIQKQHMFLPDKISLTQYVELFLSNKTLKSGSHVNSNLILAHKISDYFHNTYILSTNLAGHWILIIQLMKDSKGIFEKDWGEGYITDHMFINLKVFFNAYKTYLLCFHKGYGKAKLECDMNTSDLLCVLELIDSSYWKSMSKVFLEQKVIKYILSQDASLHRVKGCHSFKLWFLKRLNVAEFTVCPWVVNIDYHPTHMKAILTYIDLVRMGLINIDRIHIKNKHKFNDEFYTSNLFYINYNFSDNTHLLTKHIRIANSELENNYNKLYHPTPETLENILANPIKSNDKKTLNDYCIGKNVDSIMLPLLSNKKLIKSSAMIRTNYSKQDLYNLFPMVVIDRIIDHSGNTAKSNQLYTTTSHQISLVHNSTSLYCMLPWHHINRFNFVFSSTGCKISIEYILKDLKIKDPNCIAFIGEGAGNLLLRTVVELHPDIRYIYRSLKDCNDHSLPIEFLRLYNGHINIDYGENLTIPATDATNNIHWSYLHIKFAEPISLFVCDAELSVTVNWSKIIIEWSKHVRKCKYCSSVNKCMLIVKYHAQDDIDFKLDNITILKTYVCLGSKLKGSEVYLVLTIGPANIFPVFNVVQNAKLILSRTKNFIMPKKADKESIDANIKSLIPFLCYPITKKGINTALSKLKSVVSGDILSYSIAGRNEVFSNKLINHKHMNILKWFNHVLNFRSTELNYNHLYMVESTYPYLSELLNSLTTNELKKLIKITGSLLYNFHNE
recombinant RSV complex, sequence (P03421 whole entry, further chain): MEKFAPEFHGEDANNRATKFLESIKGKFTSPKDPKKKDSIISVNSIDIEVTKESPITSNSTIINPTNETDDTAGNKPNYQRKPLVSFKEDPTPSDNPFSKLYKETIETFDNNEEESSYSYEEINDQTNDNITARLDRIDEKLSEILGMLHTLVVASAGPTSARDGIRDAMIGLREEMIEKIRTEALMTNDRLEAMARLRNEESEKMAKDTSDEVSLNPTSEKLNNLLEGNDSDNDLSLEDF

The term IC50 denotes the point on the concentration scale where inhibition reaches its midpoint. By CC50 is commonly meant the concentration at which the toxic effect on the cells reaches its halfway point. High values mean better tolerance by the cells, low ones harm at low concentration. Regarding `CCOc1ccc(C(=O)NCC(C)(O)c2ccc(OC)c(-c3c[nH]c4c(F)cccc34)n2)cc1OC` (racemic) [Compound 116], the 50% inhibitory concentration (IC50) in data set [1] is less than 1 µM. The EC50 in data set [2] and in data set [3] (setting [5]) was less than 1 µM throughout. In addition, the CC50 at 5 days in data set [4] lay in the range of 10 to 100 µM.
As to `COc1cc(C(=O)NCC(C)(O)c2ccc(OC)c(-c3c[nH]c4c(F)cccc34)n2)ccc1OCCO` (racemic) [Compound 117], the 50% inhibitory concentration (IC50) in data set [1] was less than 1 µM. Further, the EC50 in data set [2] and in data set [3] (setting [5]) was less than 1 µM in each case. This compound returned a CC50 at 5 days in data set [4] of 10 to 100 µM.
With `COc1cc(C(=O)NCC(C)(O)c2ccc(OC)c(-c3ccc(F)c(Br)c3)n2)ccc1OCCF` (racemic) [Compound 118], the IC50 in data set [1] was less than 1 µM. For the same compound, the EC50 in data set [2] and in data set [3] (setting [5]) was less than 1 µM in each case. The cytotoxic concentration (CC50) at 5 days in data set [4] lay within 10 to 100 µM.
On to `COc1cc(C(=O)NCC(C)(O)c2ccc(OC)c(-c3ccc(F)c(Cl)c3)n2)ccc1OCCO` (racemic) [Compound 120], for which the IC50 in data set [1] is less than 1 µM. Besides, the EC50 in data set [2] and in data set [3] (setting [6]) was less than 1 µM in each case. The compound also came in with a CC50 at 5 days in data set [4] greater than 100 µM.
As for `CCC(O)(CNC(=O)c1ccc(OCCF)c(OC)c1)c1ccc(OC)c(-c2ccc(F)c(Cl)c2)n1` (racemic) [Compound 122], in data set [1], the 50% inhibitory concentration (IC50) was less than 1 µM. Besides, the EC50 in data set [2] and in data set [3] (setting [5]) was less than 1 µM throughout. Further, in data set [4], the CC50 at 5 days lay within 10 to 100 µM.
Regarding `COc1cc(C(=O)NCC(C)(O)c2cc3c(c(-c4ccc(F)c(Cl)c4)n2)OCC3(C)C)ccc1OCCO` (racemic) [Compound 166], the 50% inhibitory concentration (IC50) in data set [1] is less than 1 µM. The EC50 in data set [2] and in data set [3] (setting [5]) was less than 1 µM in each case. The half-maximal cytotoxic concentration (CC50) at 5 days in data set [4] was 10 to 100 µM.
With `CCC(O)(CNC(=O)c1ccc(OCCF)c(OC)c1)c1ccc(OC)c(-c2ccc(F)c(Cl)c2)n1` (single isomer, unassigned) [Compound 122a], the half-maximal inhibitory concentration (IC50) in data set [1] was less than 1 µM. The EC50 in data set [2] and in data set [3] (setting [5]) was less than 1 µM throughout. For the same compound, the CC50 at 5 days in data set [4] lay in the range of 10 to 100 µM.
With `COc1cc(C(=O)NCC(O)(c2ccc(OC)c(-c3ccc(F)c(Cl)c3)n2)C2CC2)ccc1OCC(N)=O` (single isomer, unassigned) [Compound 431], the IC50 in data set [1] was less than 1 µM. Besides, the EC50 in data set [2] and in data set [3] (setting [5]) was less than 1 µM each time. Further, in data set [4], the CC50 at 5 days lay in the range of 10 to 100 µM.
As for `COc1ccc(C(O)(CNC(=O)c2cc(OC)c3ncccc3c2)C(F)(F)F)nc1-c1ccc(F)c(Cl)c1` (centres unmarked) [Compound 339], the EC50 in data set [2] and in data set [3] (setting [5]) was less than 1 µM each time. The compound further showed a half-maximal cytotoxic concentration (CC50) at 5 days in data set [4] of 10 to 100 µM.
Turning to `COc1cc(C(=O)NCC(O)(c2cc3c(c(-c4ccc(F)c(Cl)c4)n2)OCCC3(C)C)C(F)(F)F)ccc1OC1CC1` (centres unmarked) [Compound 345], the EC50 in data set [2] and in data set [3] (setting [5]) was less than 1 µM in each case. The CC50 at 5 days in data set [4] was greater than 100 µM.
On to `COc1cc(C(=O)NCC(O)(c2cc3c(c(-c4ccc(F)c(Cl)c4)n2)OCCC3(C)C)C(F)(F)F)ccc1OC[C@@H](C)O` (some centres unmarked) [Compound 346], for which the EC50 in data set [2] and in data set [3] (setting [5]) was less than 1 µM in each case. The 50% cytotoxic concentration (CC50) at 5 days in data set [4] was in the range of 10 to 100 µM.
With `COc1cc(C(=O)NCC(O)(c2cc3c(c(-c4ccc(F)c(Cl)c4)n2)OCCC3(C)C)C(F)(F)F)ccc1OCC(N)=O` (centres unmarked) [Compound 347], the EC50 in data set [2] and in data set [3] (setting [5]) was less than 1 µM in each case. In data set [4], this compound had a cytotoxic concentration (CC50) at 5 days of 10 to 100 µM.
For `COc1cc(C(=O)NCC(O)(c2cc3c(c(-c4ccc(F)c(Cl)c4)n2)OCCC3(C)C)C(F)(F)F)ccc1OC1CCNC1=O` (centres unmarked) [Compound 348], the EC50 in data set [2] and in data set [3] (setting [5]) was less than 1 µM throughout. Also, the half-maximal cytotoxic concentration (CC50) at 5 days in data set [4] lay within 10 to 100 µM.
With `COc1cc(C(=O)NCC(O)(c2cc3c(c(-c4ccc(C#N)cc4)n2)OCC3(C)N)C(F)(F)F)ccc1OC1CC1` (centres unmarked) [Compound 542], the EC50 in data set [2] and in data set [3] (setting [6]) was less than 1 µM in each case. The 50% cytotoxic concentration (CC50) at 5 days in data set [4] lay in the range of 10 to 100 µM.
